The values that follow are results of earlier work, collected in publication PMC10005815 (Journal of Medicinal Chemistry, 2023).

Like-named read-outs stand apart in the source and are kept apart here.

For this data set, the system named is SARS-CoV-2.

Regarding `N#C[C@]1(c2ccc3c(N)ncnn23)O[C@@H](CO)[C@H](O)[C@@H]1O` [GS-441524], the “Increase of EC50 (resistance selection)” value is reported as 2.7–10.4 fold.

As a reminder, the EC50 is the concentration giving half of the maximal effect. For the compound `Cn1cnc(Cn2c(=O)[nH]/c(=N\c3cc4cn(C)nc4cc3Cl)n(Cc3cc(F)c(F)cc3F)c2=O)n1` [S-217622], the EC50 (read-out: SARS-CoV-2 VOCs EC50) is 290 to 500 nM.

With `COc1ccc(C(=O)Nc2cccc(C(F)(F)F)c2)cc1Nc1nc(-c2cccnc2)c2[nH]ccc2n1` [XMU-MP-7], the 50% effective concentration (EC50) (read-out: EC50 against γ, δ, and o variants) was less than 6.9 nM.
